Results published in US20250127790A1, “COMBINATION THERAPY USING VPS34 INHIBITORS” (Deciphera Pharmaceuticals, LLC, priority 2021, published 2025).

What was measured:
[1] = tested on: THP-1 dual reporter cells; assay: THP-1 dual reporter assay (ISRE and NF-κB promoter activity); format: cell-based, human; settings: 5 μg/mL ADU-S100, 2 μM Compound 1 or 2, overnight
Experimental: THP1-Dual™ Cells lines were purchased from InvivoGen (WT (thpd-nfis) and STING-KO (thpd-kostg)) and cultured as recommended by manufacturer: in RPMI media (Gibco 22400-071) supplemented with 10% heat-inactivated Fetal Bovine Serum (FBS) (Gibco A38400-02) and 1× Pen-Strep-Glutamine (Gibco 10378-016). Cells were treated with selective antibiotic every other passage using 100 μg/ml Normocin™ (InvivoGen ant-nr-1), 10 μg/ml of blasticidin (InvivoGen ant-bl-05) and 100 μg/ml of Zeocin™ (InvivoGen ant-zn-05). THP1-Dual™ Cells (wild-type or STING-KO) were seeded at 1.5×10^5 cells/well in 96-well plates. Cells were treated with DMSO, 5 μg/mL ADU-S100, 2 μM Compound 1 or 2 or the combinations overnight. The next day, 10 μL of the media from the treated cells were mixed with 50 μL of QUANTI-Luc™ Gold (Invivogen rep-qlcg2) in a white 96-well plate (Thermo Scientific 9502887) to measure the interferon-sensitive response element (ISRE) promoter activity through Luciferase signal using a plate reader. For measuring NF-κB promoter activity, 10 μL of the media from the treated cells were mixed with 90 μL of QUANTI-Blue™ (Invivogen rep-qbs3) in white-96-well plates (Corning-Costar 3610), then incubated at 37° C. for one hour. The signal was then measured using a plate reader with detection at 640 nm wavelength.

[2] = tested on: THP-1 dual reporter cells; assay: Cytokine secretion in wild-type and STING knockout THP-1 dual reporter cells; format: cell-based, human; settings: wild-type THP-1 dual reporter cells
A-498 cells = assay: Western blot, STAT1 phosphorylation in A-498 cells; format: cell-based, human
Experimental: A-498 cells were seeded at 1.5×10^5 cells/well in 6-well plates and cultured overnight. Cells were treated with 10 μg/mL mouse monoclonal antibody to human interferon α/β receptor chain 2 (α-IFNAR2) (clone: MMHAR-2, #21385-1, PBL Assay Science) or 10 μg/mL mouse IgG2a isotype control antibody (clone: eBM2a, #16-4724-81, Thermo Fisher Scientific). After 1 h, DMSO or 2 μM Compound 1 was added and cells were incubated for another 24 h. […] A-498 cells were washed in PBS and lysed in RIPA buffer (50 mM Tris HCl pH=7.4, 150 mM NaCl, 1% Triton X-100, 0.5% Na-deoxycholate, 0.1% SDS) containing protease inhibitor cocktail (#11836170001, Roche), and phosphatase inhibitor (#11836170001, Roche) for 10 min at 4° C. After centrifugation at 15000 rpm for 10 min at 4° C., the supernatant was obtained, and protein concentration was quantified using BCA assay (#23225, Thermo Fisher). Equal amounts were mixed with 0.1 M DTT and LDS Sample Buffer (#84788, Thermo Fisher), heated for 5 min at 90° C. before loading onto 4-12% Bis-Tris gels. Proteins were transferred to nitrocellulose membranes. Membranes were blocked in 5% non-fat dry milk in TBS with 0.05% Tween (TBS-T) for 1 h at RT, washed in TBS-T, and probed with primary antibodies shaking overnight at 4° C. After washing in TBS-T, membranes were incubated with IRDye 800CW goat anti-rabbit or IRDye 680RD donkey anti-mouse IgG (H+L) (#926-32211 and #926-68072, respectively, LI-COR, 1:10,000 dilution) secondary antibody in Intercept blocking buffer (#927-60001, LI-COR) for 1 h at RT. After washing in TBS-T, membranes were imaged using the Odyssey CLx (LI-COR). Band intensities were quantified using Image Studio Lite software version 5.2.5 (LI-COR).

B16-F10 tumors = assay: In vivo study of B16-F10 tumors; set-up: species or system C57BI/6 mice
Experimental: B16-F10 tumor-bearing C57BI/6 mice were treated with vehicle or 20 mg/kg Compound 1 p.o. (daily from day 7-16) in combination with PBS or 10 μg ADU-S100 i.t. (on days 9, 11, 13, and 15).

**Q.** For `Nc1ncnc2c1ncn2[C@@H]1O[C@@H]2COP(=O)([S-])O[C@@H]3[C@H](O)[C@@H](COP([O-])(=S)O[C@H]2[C@H]1O)O[C@H]3n1cnc2c(N)ncnc21.[Na+].[Na+]` (stereo partly shown) [ADU-S100, reference compound], which “ISRE activity (QUANTI-Luc)” value [1] is on record?
**A.** Its value is “stimulates”.

**Q.** What about the “NFκB activity (QUANTI-Blue)” value [1] of the same compound?
**A.** Its value is “stimulates”.

**Q.** What about the “secretion of CCL5” value [2] of the same compound?
**A.** Its value is “stimulates”.

**Q.** And the “secretion of CXCL10” value [2]?
**A.** The value was “stimulates”.

**Q.** And the “secretion of IFNβ” value [2]?
**A.** The value was “stimulates”.

**Q.** What does the source list for `C[C@@H]1COCCN1c1cc(N2CCCC[C@@H]2C(F)(F)F)[nH]c(=O)c1` [Compound 1, 4-((R)-3-methylmorpholino)-6-((R)-2-(trifluoromethyl)piperidin-1-yl)pyridin-2(1H)-one]?
**A.** phosphorylation of STAT1 (A-498 cells; 2 μM Compound 1, 24 h): increased; total levels of STAT1 (A-498 cells; 2 μM Compound 1, 24 h): did not alter; phosphorylation of STAT1 with addition of α-IFNAR2 (A-498 cells; 10 μg/mL α-IFNAR2 antibody 1 h before 2 μM Compound 1, 24 h): inhibited; sensitization of B16-F10 tumors to STING agonist treatment (tumor growth, survival) (B16-F10 tumors; C57BI/6 mice, 20 mg/kg Compound 1 p.o. daily day 7-16 with 10 μg ADU-S100 i.t. on days 9, 11, 13, 15): sensitized; mice survival (B16-F10 tumors; Renca and B16-F10 tumor-bearing mice, Compound 1 with STING agonist treatment): significantly improved
